Laboratory results as given in PMC5748754, “Elucidating the Skin Delivery of Aglycone and Glycoside Flavonoids: How the Structures Affect Cutaneous Absorption” (Nutrients, 2017).
≈ marks a conversion by molar mass, not a printed value. Where “and” joins values, the source holds several entries; their conditions need not be identical. Equal values may be shown once. Entries after “also recorded” stand apart in the source; their conditions may differ.

Tests used:
[1] = test system: fMLF-activated human neutrophils (O2•– release); assay: Superoxide anion (O2•–) inhibition in fMLF-activated human neutrophils; type: cell-based; details: flavonoids at 3 µM, fMLF/cytochalasin B-activated human neutrophils; for inhibition at 3 µM: Homo sapiens, Neutrophil
Text: (§1) The protocol was approved by the Institutional Review Board at Chang Gung Memorial Hospital, and written informed consent was obtained from all volunteers (201600500B0C101). Whole blood was withdrawn from healthy volunteers between 20 and 30 years of age. Human neutrophils were isolated using a typical method of dextran sedimentation prior to centrifugation in a Ficoll-Hypaque gradient and hypotonic lysis of erythrocytes. The granulocyte layer was harvested and suspended in calcium-free HBSS at pH 7.4, which was maintained at 4 °C until use.
(§2) The reduction of ferricytochrome c was utilized for measuring the superoxide anion (O2^•–) release from the neutrophils. The human neutrophils (6 × 10^5 cells/mL) were incubated with 0.5 mg/mL ferricytochrome c and 1 mM CaCl2 at 37 °C, and were then treated with flavonoids (3 µM) in DMSO for 10 min. Neutrophils were stimulated by adding 0.1 µM fMLF with cytochalasin B (1 µg/mL). The reduction of ferricytochrome c was monitored by the absorbance at 550 nm using a U3010 ultraviolet/visible spectrophotometer (Hitachi, Tokyo, Japan). The human neutrophils were equilibrated with an elastase substrate (MeO-Suc-Ala-Ala-Pro-Val-p-nitroanilide, 100 µM) at 37 °C for 2 min. Flavonoids at a concentration of 3 µM were added into the neutrophil suspension for 10 min. The cells were activated by fMLF and cytochalasin B for a further 10 min. Elastase release was detected by measuring the change of absorbance at 405 nm.

[2] = Partition coefficient (log P), n-octanol/water; type: physicochemical; details: 37 °C
Description: Flavonoids in methanol (0.5 mg/mL) were pipetted into a tube at a volume of 1 mL. Methanol was then evaporated under vacuum. In the amount of 1 mL of each, n-Octanol and water were incorporated into the tube. After being shaken for 24 h at 37 °C, the tube was centrifugated at 10,000× g for 10 min. The flavonoid content in both phases was analyzed by HPLC. The log P was calculated as log (flavonoid content in n-octanol/flavonoid content in water).

[3] = Franz cell skin deposition in SC-disrupted nude mouse skin; type: in vitro ADME; details: 6 mM; for skin deposition after the SC's removal / Skin deposition, fold versus intact skin (SC-stripping): SC-stripped nude mouse skin
Description: The full-thickness dorsal skin of the nude mouse was excised after sacrifice. The SC-stripped skin was obtained by stripping the skin surface 20 times with adhesive tape (Scotch®, 3M, Maplewood, MN, USA). The delipidized skin was achieved by incubating the skin surface onto a chloroform/methanol solution (2:1) for 2 h. To prepare the desebumed skin, the SC side of the skin was washed with cold hexane (4 °C) five times, based on the procedure of the previous study. The skin’s surface was then treated with a 40% ethanol/water solution for 2 h, a process that successfully denatured the skin’s proteins.
(§3) The cutaneous absorption of flavonoids was assessed using a Franz diffusion cell system. The excised animal skin or cellulose membrane was mounted between the donor and receptor compartments with the SC facing up toward the donor. The receptor was filled with 30% ethanol/pH 7.4 buffer and placed on a magnetic stirring plate. The effective permeation area of the cell was 0.785 cm^2. The stirring rate and temperature of the receptor were 600 rpm and 37 °C, respectively. Saturated solution or a 6 mM flavonoid suspension was prepared in 20% PEG400/pH 7.4 buffer to be loaded into the donor compartment. A 300-µL aliquot in the receptor was collected at determined durations, followed by an immediate replacement with fresh receptor medium. The amount of flavonoid in the receptor was determined by HPLC. The skin was removed from the cell after a 24-h application. After being washed with water, the skin sample was weighed and positioned in a vial with 1 mL methanol. MagNA Lyser (Roche) was used to homogenize the skin. The homogenate was centrifuged at 10,000× g for 10 min. The supernatant was analyzed by HPLC to quantify the flavonoid deposition in the skin reservoir.

[4] = In vitro Franz cell skin absorption, nude mouse skin; type: in vitro ADME; details: for S value (CSD/PC) / S value (skin deposition/flux) / flux: the sentence does not separate nude mouse and pig skin; for selectivity ratio at 24 h, 6 mM / skin deposition: nude mouse skin; for selectivity ratio at 24 h, 6 mM: read-out: S value (dermal/transdermal selectivity index, skin deposition/flux); for skin deposition: equivalent dose 6 mM, 24 h; for selectivity ratio at 24 h, 6 mM / S value (skin deposition/flux) / flux: dose 6 mM
Description: as §3
In the cutaneous absorption experiment, flavonoid deposition in the skin was estimated as the molar amount per mg of skin (nM/mg). In the case of the skin deposition from the saturated solution, the calibrated skin deposition (CSD) was measured as flavonoid deposition divided by the applied dose (saturated solubility). The flux (nM/cm^2/h) was estimated by the slope of the penetrated amount–time curve. The permeability coefficient (PC) was calculated from the flux divided by the saturated solubility of the flavonoids. The dermal/transdermal selectivity index (S value) was calculated using an equation of skin deposition/flux (for equivalent dose application) or CSD/PC (for saturated dose application).

[5] = test system: fMLF-activated human neutrophils (elastase release); assay: Elastase release inhibition in fMLF-activated human neutrophils; type: cell-based; details: flavonoids at 3 µM, fMLF/cytochalasin B-activated human neutrophils; for inhibition at 3 µM: Neutrophil
Text: as §1, §2

[6] = Saturated solubility in 20% PEG400/pH 7.4 buffer; type: physicochemical; details: for solubility at 2 h: aqueous with cosolvent or surfactant or cyclodextrin, thermodynamic from solid, 20% PEG400/pH 7.4 buffer, 37 °C
Description: The suspension was then centrifuged at 10,000× g for 10 min. The supernatant was filtered across the polyvinylidene fluoride membrane with a pore size of 0.45 µm. The resulting supernatant was analyzed by HPLC to record the solubility (mM).

[7] = Capacity factor (log K') by HPLC; type: physicochemical; details: HPLC C18, methanol/pH 2 phosphate buffer 1:1
Description: The HPLC setup for the calculation of log K’ was an HPLC system (7-series, Hitachi, Tokyo, Japan) with a LiChrospher® C18 column (200 × 4.6 mm, Merck, Darmstadt, Germany). The mobile phase consisted of a mixture of methanol and pH 2 phosphate buffer solution (1:1). The flow rate and wavelength for determination were 1 mL/min (L-7110 pump) and 256 nm (L-7455 diode array detector), respectively. The retention times of flavonoids were detected, and the log K’ was computed as log [(tr − t0)/t0], where tr and t0 were the retention time of the flavonoid and the nonretained solvent peak, respectively.

[8] = In vitro Franz cell skin absorption, pig skin; type: in vitro ADME; details: read-out: S value (dermal/transdermal selectivity index, skin deposition/flux)
Description: as §3, with “After being washed with water, the skin sample was weighed and positioned in a vial with 1 mL methanol. MagNA Lyser (Roche) was used to homogenize the skin. The homogenate was centrifuged at 10,000× g for 10 min.” left out
In the cutaneous absorption experiment, flavonoid deposition in the skin was estimated as the molar amount per mg of skin (nM/mg). In the case of the skin deposition from the saturated solution, the calibrated skin deposition (CSD) was measured as flavonoid deposition divided by the applied dose (saturated solubility). […] The permeability coefficient (PC) was calculated from the flux divided by the saturated solubility of the flavonoids. […]

[9] = In vivo cutaneous tolerance (TEWL, histology) on nude mouse back; details: 6 mM topically daily for 7 days; for histology: SC layers: H&E, versus vehicle control; for ΔTEWL (treated skin minus aqueous vehicle control): nude mouse back
Description: The 20% PEG400/pH 7.4 buffer loaded with flavonoids at 6 mM was topically applied daily (0.6 mL) on the nude mouse back for 7 days. The flavonoid-containing vehicle was replaced with a new one each day. After removal of the vehicle, the treated skin region was evaluated by Tewameter TM300 (Courage and Khazaka, Köln, Germany) to determine the transepidermal water loss (TEWL). Stained by hematoxylin and eosin (H&E), the treated skin was excised for histological examination after a 7-day flavonoid application.

[10] = saturated solubility dose, skin type not separated

## O=c1cc(-c2ccccc2)oc2cc(O)c(O)c(O)c12 [Baicalein]
[1]
  inhibition at 3 µM: 77%
[1]; 3 µM
  O2^•– Inhibition: 77.48 ± 5.27%
[2]
  logP at 24 h: 3.59 ± 0.08
[3]
  skin deposition after the SC's removal: 0.2 nM/mg
[4]; [10]
  calibrated skin deposition (CSD): below the quantification limit
[4]; saturated solubility dose
  S value (CSD/PC): 0
[5]
  inhibition at 3 µM: 12.2 ± 2.15%
[6]
  solubility at 2 h: 7.7 ± 1.9 µM (≈ 2.08 µg/mL)
[7]
  log K’: 0.73

## O=C(O)[C@H]1O[C@@H](Oc2cc3oc(-c4ccccc4)cc(=O)c3c(O)c2O)[C@H](O)[C@@H](O)[C@@H]1O [Baicalin]
[1]
  inhibition at 3 µM: 77%
[1]; 3 µM
  O2^•– Inhibition: 75.73 ± 6.21%
[1]; listed as baicalin, 3 µM
  O2^•– Inhibition: 76%
[2]
  logP at 24 h: 0.89 ± 0.02
[5]
  inhibition at 3 µM: 0%
  Elastase Inhibition: did not change
[6]
  solubility at 2 h: 5320 ± 150 µM (≈ 2370 µg/mL)
[7]
  log K’: 0.42

## O=c1c(O)c(-c2ccc(O)cc2)oc2cc(O)cc(O)c12 [Kaempferol]
[8]
  selectivity ratio at 24 h, 6 mM: 1.5
[4]
  selectivity ratio at 24 h, 6 mM: 2.7
  skin deposition: 0.11 nM/mg
[4]; [10]
  permeability coefficient (PC): neglected
[4]; saturated solubility dose
  S value (CSD/PC): infinity
[9]
  histology: SC layers: SC layers could be recovered
  ΔTEWL (treated skin minus aqueous vehicle control): reduced TEWL as compared to the vehicle control; also recorded: alleviated ΔTEWL
[6]
  solubility at 2 h: 190 ± 4.7 µM (≈ 54.4 µg/mL)

## O=c1c(O)c(-c2cc(O)c(O)c(O)c2)oc2cc(O)cc(O)c12 [Myricetin]
[1]
  inhibition at 3 µM: 42.1 ± 6.22%
[2]
  logP at 24 h: 3.18 ± 0.07
[3]
  Skin deposition, fold versus intact skin (SC-stripping): > 30 x
  skin deposition after the SC's removal: 0.4 nM/mg
[4]
  S value (skin deposition/flux): ∞
  flux: near zero
[4]; [10]
  permeability coefficient (PC): neglected
[4]; saturated solubility dose
  S value (CSD/PC): infinity
[5]
  inhibition at 3 µM: 16.8 ± 4.76%
[6]
  solubility at 2 h: 530 ± 10 µM (≈ 169 µg/mL)
[7]
  log K’: 0.34

## O=C1C[C@@H](c2ccc(O)cc2)Oc2cc(O)cc(O)c21 [Naringenin]
[4]
  skin deposition: 0.37 nM/mg
[9]
  histology: SC layers: SC layers could be recovered
  ΔTEWL (treated skin minus aqueous vehicle control): reduced TEWL as compared to the vehicle control
[9]; listed as naringenin
  ΔTEWL (treated skin minus aqueous vehicle control): alleviated ΔTEWL
[6]; PEG400/pH 7.4 buffer solution
  fold more soluble than baicalein: 470 fold
[6]
  solubility at 2 h: 3620 ± 280 µM (≈ 986 µg/mL)

## C[C@@H]1O[C@@H](O[C@H]2[C@H](Oc3cc(O)c4c(c3)O[C@H](c3ccc(O)cc3)CC4=O)O[C@H](CO)[C@@H](O)[C@@H]2O)[C@H](O)[C@H](O)[C@H]1O [Naringin]
[9]
  histology: SC layers: SC layers could be recovered
[6]
  solubility at 2 h: > 20000 µM

## O=c1c(O)c(-c2ccc(O)c(O)c2)oc2cc(O)cc(O)c12 [Quercetin]
[3]
  Skin deposition, fold versus intact skin (SC-stripping): > 30 x
  skin deposition after the SC's removal: 1.2 nM/mg
[3]; deproteinized nude mouse skin
  Skin deposition, fold versus intact skin (Protein removal): failed to change
[4]
  S value (skin deposition/flux): ∞
  flux: near zero
[4]; [10]
  permeability coefficient (PC): neglected
[4]; saturated solubility dose
  S value (CSD/PC): infinity
[6]
  solubility at 2 h: 380 ± 2.5 µM (≈ 115 µg/mL)

## C[C@@H]1O[C@@H](OC[C@H]2O[C@@H](Oc3c(-c4ccc(O)c(O)c4)oc4cc(O)cc(O)c4c3=O)[C@H](O)[C@@H](O)[C@@H]2O)[C@H](O)[C@H](O)[C@H]1O [Rutin]
[1]
  inhibition at 3 µM: 33.9 ± 8.67%
[8]
  selectivity ratio at 24 h, 6 mM: 0.4
[4]
  selectivity ratio at 24 h, 6 mM: 1.3
[5]
  inhibition at 3 µM: 13.2 ± 3.39%
[6]
  solubility at 2 h: 1840 ± 40 µM (≈ 1120 µg/mL)
[7]
  log K’: 0.24

## Kaempferol
[1]
  O2^•– Inhibition: 26.49 ± 8.41%
[5]
  Elastase Inhibition: 18.11 ± 9.01%

## Naringenin
[1]; 3 µM
  O2^•– Inhibition: 19.72 ± 8.23%
[1]; listed as naringenin, 3 µM
  O2^•– Inhibition: 20%
[5]
  Elastase Inhibition: 17.97 ± 6.62%

## Naringin
[1]
  O2^•– Inhibition: 21.51 ± 2.53%
[5]
  Elastase Inhibition: 13.89 ± 9.67%

## Quercetin
[1]
  O2^•– Inhibition: 26.44 ± 8.07%
[5]; 3 µM
  Elastase Inhibition: 29% and 28.67 ± 8.51%
